Laboratory results published in the kinase profiling compilation of Christmann-Franck et al. (2016).

Tests used:
Experiment in all cases: KINOMEscan competition binding
Details in all cases: compound 0.1 µM
[1] = target: ABL1 (human) (UniProt P00519)
[2] = target: CAMK2D (human) (UniProt Q13557)
[3] = target: CSK (human) (UniProt P41240)
[4] = target: CSNK1A1 (human) (UniProt P48729)
[5] = test system: EGFR (human), P00533 [A750P; 747-749 del]
[6] = test system: EGFR (human), P00533 [L861Q]
[7] = target: EIF2AK1 (human) (UniProt Q9BQI3)
[8] = target: EPHA2 (human) (UniProt P29317)
EPHA2 (human), sequence (P29317 whole entry, looked up): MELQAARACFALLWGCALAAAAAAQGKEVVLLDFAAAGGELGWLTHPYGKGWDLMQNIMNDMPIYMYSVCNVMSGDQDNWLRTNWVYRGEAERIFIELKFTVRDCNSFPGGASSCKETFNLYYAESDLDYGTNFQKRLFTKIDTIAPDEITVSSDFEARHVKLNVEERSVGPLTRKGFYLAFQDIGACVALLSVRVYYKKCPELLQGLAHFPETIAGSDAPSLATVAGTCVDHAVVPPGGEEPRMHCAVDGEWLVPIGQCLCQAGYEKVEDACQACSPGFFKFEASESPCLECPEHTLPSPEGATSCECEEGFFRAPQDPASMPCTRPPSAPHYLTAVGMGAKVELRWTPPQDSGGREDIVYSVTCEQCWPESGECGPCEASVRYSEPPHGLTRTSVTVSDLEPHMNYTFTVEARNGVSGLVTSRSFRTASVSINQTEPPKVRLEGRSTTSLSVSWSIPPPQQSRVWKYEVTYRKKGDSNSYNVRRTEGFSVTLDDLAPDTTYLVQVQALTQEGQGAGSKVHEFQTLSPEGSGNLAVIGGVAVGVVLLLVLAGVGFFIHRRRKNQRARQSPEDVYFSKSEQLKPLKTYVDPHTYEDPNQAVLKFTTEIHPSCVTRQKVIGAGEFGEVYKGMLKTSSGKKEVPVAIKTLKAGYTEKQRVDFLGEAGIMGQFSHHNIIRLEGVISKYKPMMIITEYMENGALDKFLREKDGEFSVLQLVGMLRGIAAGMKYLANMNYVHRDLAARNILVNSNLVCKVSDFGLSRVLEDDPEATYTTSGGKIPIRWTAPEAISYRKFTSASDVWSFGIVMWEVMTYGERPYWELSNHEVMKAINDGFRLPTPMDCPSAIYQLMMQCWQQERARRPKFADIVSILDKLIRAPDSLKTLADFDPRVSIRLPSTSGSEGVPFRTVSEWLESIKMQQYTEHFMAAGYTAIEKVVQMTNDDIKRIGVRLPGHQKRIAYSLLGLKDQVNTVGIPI

[9] = target: EPHA6 (human) (UniProt Q9UF33)
EPHA6 (human), sequence (Q9UF33 whole entry, looked up): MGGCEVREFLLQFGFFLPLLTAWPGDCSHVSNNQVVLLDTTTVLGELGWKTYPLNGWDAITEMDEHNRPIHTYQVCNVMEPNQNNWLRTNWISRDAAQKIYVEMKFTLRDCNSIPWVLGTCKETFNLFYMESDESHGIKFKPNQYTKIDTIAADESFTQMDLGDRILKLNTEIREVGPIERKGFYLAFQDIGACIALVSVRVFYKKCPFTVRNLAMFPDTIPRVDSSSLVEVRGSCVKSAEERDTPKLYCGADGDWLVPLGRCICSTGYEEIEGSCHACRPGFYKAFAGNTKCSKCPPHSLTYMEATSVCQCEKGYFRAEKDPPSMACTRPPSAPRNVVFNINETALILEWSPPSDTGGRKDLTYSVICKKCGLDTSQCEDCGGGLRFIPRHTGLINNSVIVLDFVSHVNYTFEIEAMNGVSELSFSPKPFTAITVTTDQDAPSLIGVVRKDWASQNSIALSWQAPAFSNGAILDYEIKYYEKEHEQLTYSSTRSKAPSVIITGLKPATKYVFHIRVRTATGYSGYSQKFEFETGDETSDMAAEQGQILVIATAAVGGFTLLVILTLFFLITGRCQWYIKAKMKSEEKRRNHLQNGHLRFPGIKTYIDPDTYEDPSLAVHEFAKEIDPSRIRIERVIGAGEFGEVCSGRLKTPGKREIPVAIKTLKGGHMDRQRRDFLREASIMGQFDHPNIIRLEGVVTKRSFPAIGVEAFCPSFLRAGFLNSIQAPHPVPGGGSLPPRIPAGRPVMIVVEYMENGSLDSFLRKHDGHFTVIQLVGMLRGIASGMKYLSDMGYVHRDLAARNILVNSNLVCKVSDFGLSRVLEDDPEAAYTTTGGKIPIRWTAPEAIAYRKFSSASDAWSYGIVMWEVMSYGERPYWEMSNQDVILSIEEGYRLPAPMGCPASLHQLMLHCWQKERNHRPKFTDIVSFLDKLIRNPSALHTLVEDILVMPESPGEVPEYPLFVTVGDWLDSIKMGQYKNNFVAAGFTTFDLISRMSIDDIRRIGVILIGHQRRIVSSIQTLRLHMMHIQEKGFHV

[10] = target: FGR (human) (UniProt P09769)
[11] = test system: FLT3 (human), P36888 [K663Q]
[12] = target: FLT4 (human) (UniProt P35916)
[13] = target: HIPK1 (human) (UniProt Q86Z02)
[14] = target: HUNK (human) (UniProt P57058)
[15] = target: INSR (human) (UniProt P06213)
[16] = test system: KIT (human), P10721 [D816H]
[17] = test system: KIT (human), P10721 [V559D/T670I]
[18] = target: LATS1 (human) (UniProt O95835)
LATS1 (human), sequence (O95835 whole entry, looked up): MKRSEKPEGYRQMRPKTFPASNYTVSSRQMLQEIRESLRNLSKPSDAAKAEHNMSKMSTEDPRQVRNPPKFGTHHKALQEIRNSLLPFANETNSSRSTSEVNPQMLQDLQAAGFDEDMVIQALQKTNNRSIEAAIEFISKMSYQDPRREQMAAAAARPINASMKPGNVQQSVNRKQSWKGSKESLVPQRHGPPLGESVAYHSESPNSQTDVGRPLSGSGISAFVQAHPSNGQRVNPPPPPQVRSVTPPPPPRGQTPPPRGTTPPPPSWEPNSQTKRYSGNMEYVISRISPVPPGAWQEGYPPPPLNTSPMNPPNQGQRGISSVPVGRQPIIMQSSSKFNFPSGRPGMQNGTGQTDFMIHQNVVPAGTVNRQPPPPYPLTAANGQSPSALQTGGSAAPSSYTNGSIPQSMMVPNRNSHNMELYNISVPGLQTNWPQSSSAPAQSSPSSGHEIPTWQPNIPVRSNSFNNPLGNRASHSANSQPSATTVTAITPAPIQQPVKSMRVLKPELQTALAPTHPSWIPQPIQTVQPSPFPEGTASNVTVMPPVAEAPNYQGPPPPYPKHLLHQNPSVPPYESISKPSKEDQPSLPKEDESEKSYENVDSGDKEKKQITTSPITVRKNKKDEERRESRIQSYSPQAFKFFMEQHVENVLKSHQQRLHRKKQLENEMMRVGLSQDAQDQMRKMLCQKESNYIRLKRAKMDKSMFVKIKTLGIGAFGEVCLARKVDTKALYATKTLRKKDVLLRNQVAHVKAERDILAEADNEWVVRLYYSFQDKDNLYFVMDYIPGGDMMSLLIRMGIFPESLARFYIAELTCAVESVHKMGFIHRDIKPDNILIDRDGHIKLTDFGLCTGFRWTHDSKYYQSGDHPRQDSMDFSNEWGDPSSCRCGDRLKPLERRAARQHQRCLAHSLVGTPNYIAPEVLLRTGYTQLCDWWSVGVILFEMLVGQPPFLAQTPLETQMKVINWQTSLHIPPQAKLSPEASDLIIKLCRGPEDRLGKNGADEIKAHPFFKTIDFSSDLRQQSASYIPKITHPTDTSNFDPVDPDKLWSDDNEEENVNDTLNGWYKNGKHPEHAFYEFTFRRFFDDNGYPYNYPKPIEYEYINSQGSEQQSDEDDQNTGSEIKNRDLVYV

[19] = target: MAP4K2 (human) (UniProt Q12851)
[20] = target: MAP4K5 (human) (UniProt Q9Y4K4)
[21] = target: MAPK1 (human) (UniProt P28482)
MAPK1 (human), sequence (P28482 whole entry, looked up): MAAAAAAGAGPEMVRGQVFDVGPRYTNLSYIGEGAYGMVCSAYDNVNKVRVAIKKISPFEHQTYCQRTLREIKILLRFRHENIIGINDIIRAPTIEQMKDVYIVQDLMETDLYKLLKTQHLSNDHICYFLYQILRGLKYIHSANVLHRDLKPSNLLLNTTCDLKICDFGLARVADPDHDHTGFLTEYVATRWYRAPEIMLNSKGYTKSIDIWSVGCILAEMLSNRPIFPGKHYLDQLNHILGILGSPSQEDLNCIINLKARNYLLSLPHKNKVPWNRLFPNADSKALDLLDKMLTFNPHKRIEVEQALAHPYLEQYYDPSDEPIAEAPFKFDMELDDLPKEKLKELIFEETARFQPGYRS

[22] = target: MAPK11 (human) (UniProt Q15759)
[23] = target: MAPK4 (human) (UniProt P31152)
[24] = test system: MET (human), P08581 [M1250T]
[25] = target: NEK1 (human) (UniProt Q96PY6)
[26] = target: PAK6 (human) (UniProt Q9NQU5)
[27] = target: PDPK1 (human) (UniProt O15530)
[28] = test system: PIK3CA (human), P42336 [C420R]
[29] = test system: PIK3CA (human), P42336 [E542K]
[30] = target: PIK3CB (human) (UniProt P42338)
[31] = target: PRKCD (human) (UniProt Q05655)
[32] = target: PRKCQ (human) (UniProt Q04759)
[33] = target: PRKD3 (human) (UniProt O94806)
[34] = test system: RET (human), P07949 [V804L]
[35] = target: RPS6KA5 KD1 (human) (UniProt O75582)
[36] = target: SIK1 (human) (UniProt P57059)
[37] = target: SRPK2 (human) (UniProt P78362)
[38] = target: STK33 (human) (UniProt Q9BYT3)
[39] = target: STK38L (human) (UniProt Q9Y2H1)
[40] = target: TRPM6 (human) (UniProt Q9BX84)

ABL1 (human), sequence (P00519 whole entry, looked up): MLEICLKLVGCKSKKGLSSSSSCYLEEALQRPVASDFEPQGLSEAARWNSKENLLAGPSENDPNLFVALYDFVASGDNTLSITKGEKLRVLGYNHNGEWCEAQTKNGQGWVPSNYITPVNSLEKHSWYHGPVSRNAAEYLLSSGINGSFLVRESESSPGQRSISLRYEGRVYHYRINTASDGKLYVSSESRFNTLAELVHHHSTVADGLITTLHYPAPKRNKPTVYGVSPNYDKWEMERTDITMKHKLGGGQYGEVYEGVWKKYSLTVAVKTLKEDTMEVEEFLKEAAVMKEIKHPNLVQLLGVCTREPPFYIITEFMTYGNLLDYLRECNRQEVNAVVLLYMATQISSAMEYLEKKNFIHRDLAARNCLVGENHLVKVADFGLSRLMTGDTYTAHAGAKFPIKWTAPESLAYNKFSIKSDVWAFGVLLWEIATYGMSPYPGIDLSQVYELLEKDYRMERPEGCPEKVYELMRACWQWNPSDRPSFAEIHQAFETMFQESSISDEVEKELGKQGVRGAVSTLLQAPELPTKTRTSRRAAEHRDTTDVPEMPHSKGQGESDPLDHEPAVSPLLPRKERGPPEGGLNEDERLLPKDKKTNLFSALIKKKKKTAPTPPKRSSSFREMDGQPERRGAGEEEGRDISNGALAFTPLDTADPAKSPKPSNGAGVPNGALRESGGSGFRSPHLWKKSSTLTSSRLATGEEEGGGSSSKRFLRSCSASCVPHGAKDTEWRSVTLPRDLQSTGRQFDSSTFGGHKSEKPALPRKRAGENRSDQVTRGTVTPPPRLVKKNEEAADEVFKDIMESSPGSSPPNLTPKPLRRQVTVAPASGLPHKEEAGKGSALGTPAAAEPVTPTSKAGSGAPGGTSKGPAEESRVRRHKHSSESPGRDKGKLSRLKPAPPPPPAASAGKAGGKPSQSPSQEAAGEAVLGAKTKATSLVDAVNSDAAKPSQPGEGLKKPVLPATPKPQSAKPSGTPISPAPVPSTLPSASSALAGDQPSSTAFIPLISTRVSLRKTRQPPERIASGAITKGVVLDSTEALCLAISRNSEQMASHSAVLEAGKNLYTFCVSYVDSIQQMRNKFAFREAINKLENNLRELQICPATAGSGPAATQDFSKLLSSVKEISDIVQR
CSNK1A1 (human), sequence (P48729 whole entry, looked up): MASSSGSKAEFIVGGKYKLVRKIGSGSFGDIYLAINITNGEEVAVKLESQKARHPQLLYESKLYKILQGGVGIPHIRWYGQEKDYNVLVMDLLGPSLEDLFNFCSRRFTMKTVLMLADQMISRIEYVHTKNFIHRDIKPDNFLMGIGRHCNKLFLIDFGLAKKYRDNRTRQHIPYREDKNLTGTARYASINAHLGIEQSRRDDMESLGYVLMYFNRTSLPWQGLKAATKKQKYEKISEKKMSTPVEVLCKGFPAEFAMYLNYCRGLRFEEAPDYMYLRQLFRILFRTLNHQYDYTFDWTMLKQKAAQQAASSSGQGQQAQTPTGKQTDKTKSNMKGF

Compound: CCc1ccc(C(=O)Nc2cc(CN3CCN(C)CC3)cc(C(F)(F)F)c2)cc1C#Cc1cnc2ccnn2c1
- kinase still bound, per cent of control [1]: 100%
- kinase still bound, per cent of control [2]: 78%
- kinase still bound, per cent of control [3]: 92%
- kinase still bound, per cent of control [4]: 100%
- kinase still bound, per cent of control [5]: 90%
- kinase still bound, per cent of control [6]: 100%
- kinase still bound, per cent of control [7]: 100%
- kinase still bound, per cent of control [8]: 80%
- kinase still bound, per cent of control [9]: 63%
- kinase still bound, per cent of control [10]: 59%
- kinase still bound, per cent of control [11]: 70%
- kinase still bound, per cent of control [12]: 85%
- kinase still bound, per cent of control [13]: 100%
- kinase still bound, per cent of control [14]: 100%
- kinase still bound, per cent of control [15]: 86%
- kinase still bound, per cent of control [16]: 81%
- kinase still bound, per cent of control [17]: 96%
- kinase still bound, per cent of control [18]: 100%
- kinase still bound, per cent of control [19]: 100%
- kinase still bound, per cent of control [20]: 100%
- kinase still bound, per cent of control [21]: 100%
- kinase still bound, per cent of control [22]: 100%
- kinase still bound, per cent of control [23]: 90%
- kinase still bound, per cent of control [24]: 85%
- kinase still bound, per cent of control [25]: 93%
- kinase still bound, per cent of control [26]: 81%
- kinase still bound, per cent of control [27]: 100%
- kinase still bound, per cent of control [28]: 100%
- kinase still bound, per cent of control [29]: 100%
- kinase still bound, per cent of control [30]: 100%
- kinase still bound, per cent of control [31]: 100%
- kinase still bound, per cent of control [32]: 80%
- kinase still bound, per cent of control [33]: 97%
- kinase still bound, per cent of control [34]: 86%
- kinase still bound, per cent of control [35]: 93%
- kinase still bound, per cent of control [36]: 100%
- kinase still bound, per cent of control [37]: 75%
- kinase still bound, per cent of control [38]: 100%
- kinase still bound, per cent of control [39]: 100%
- kinase still bound, per cent of control [40]: 90%
